Converted amounts (≈) assume the structure as drawn. “And” between values parts separate entries of the source, which are not always exact repeats. Equal entries are not always repeated.
Tests used:
[1] = target: CDK2 (UniProt P24941); assay: Enzyme Assay
[2] = target: CDK2 (human) (UniProt P24941); assay: Cell-Based Assay
[3] = system: CDK2 (rat); assay: Cell-Based Assay; settings: rasmc
[4] = system: CDK2 (murine); assay: Animal Model; settings: l1210
[5] = system: CDK2 (mouse); assay: Cell-Based Assay; settings: p388

Row | IC50 [1] | SMILES | also measured
1 | 0.6 µg/mL (≈ 1.8 µM) | CSc1ccc(Nc2nc(Cl)nc3c2ncn3C(C)C)cc1 | 
2 | > 60 µg/mL | COc1ccc(CNc2nc(Cl)nc3c2ncn3CCC(=O)c2cccc3ccccc23)cc1 | 
3 | 0.6 µg/mL (≈ 1.34 µM) | CC(C)n1cnc2c(NCc3ccc(-c4ccccc4)cc3)nc(N(CCO)CCO)nc21 | IC50 ([2]; caco-2): 3.5 µg/mL (≈ 7.84 µM); IC50 ([2]; mcf-7): 1 µg/mL (≈ 2.24 µM); IC50 ([2]; ovcar): 2 µg/mL (≈ 4.48 µM); IC50 ([2]; panc1): 1.3 µg/mL (≈ 2.91 µM)
4 | 0.38 µg/mL (≈ 1.01 µM) | CC(C)n1cnc2c(NCc3ccc(Cl)cc3)nc(NC[C@H](C)O)nc21 | 
5 |  | COc1ccc(CNc2nc(N3CCOCC3)nc3c2ncn3C(C)C)cc1 | IC50 ([2]; ovcar): 4 µg/mL (≈ 10.5 µM); IC50 ([2]; panc1): 5.5 µg/mL (≈ 14.4 µM)
6 | 0.5 µg/mL (≈ 1.09 µM) | CC(C)n1cnc2c(Nc3cccc(-c4ccc(C#N)cc4)c3)nc(N(CCO)CCO)nc21 | 
7 | > 60 µg/mL | COc1ccc(CNc2nc(Cl)nc3c2ncn3CCCCl)cc1 | 
8 |  | COc1ccc(CNc2nc(N(CCO)CCO)nc3c2ncn3C(C)C)cc1 | IC50 [3]: 0.5 µg/mL (≈ 1.25 µM); MST [4]: 13 d (3×) and 11 d and 12 d
9 | 0.07 µg/mL (≈ 0.174 µM) | CSc1ccc(Nc2nc(N(CCO)CCO)nc3c2ncn3C(C)C)cc1 | 
10 | 2.02 µg/mL (≈ 5 µM) | CC(C)n1cnc2c(NCc3ccc(Cl)cc3)nc(NCCNCCO)nc21 | 
11 | 0.18 µg/mL (≈ 0.502 µM) | CC(CO)Nc1nc(NCc2ccc(F)cc2)c2ncn(C(C)C)c2n1 (stereo unspecified) | 
12 | 60 µg/mL (≈ 194 µM) | Cn1cnc2c(OCc3ccc(Cl)cc3)nc(Cl)nc21 | 
13 | > 60 µg/mL | COC(=O)c1ccc(Cn2cnc3c(NCc4ccc(OC)cc4)nc(Cl)nc32)cc1 | 
14 | 0.8 µg/mL (≈ 1.93 µM) | CC(C)n1cnc2c(NCc3ccc4c(c3)OCO4)nc(N(CCO)CCO)nc21 | 
15 | 60 µg/mL (≈ 203 µM) | Clc1ccc(COc2nc(Cl)nc3[nH]cnc23)cc1 | 
16 |  | CC(C)n1cnc2c(-c3cccc(OCc4ccccc4)c3)nc(N(CCO)CCO)nc21.CC(C)n1cnc2c(-c3cccc(Oc4ccccc4)c3)nc(N(CCO)CCO)nc21 | IC50 [5]: 1.5 µg/mL; IC50 ([2]; mcf-7): 2 µg/mL; IC50 ([2]; ovcar): 2 µg/mL; IC50 ([2]; panc1): 2.5 µg/mL
17 | 0.5 µg/mL (≈ 1.1 µM) | CC(C)n1cnc2c(NCc3ccc(-c4cccs4)cc3)nc(N(CCO)CCO)nc21 | 
18 | 1 µg/mL (≈ 2.76 µM) | FC(F)(F)n1cnc2c(NCc3ccc(Cl)cc3)nc(Cl)nc21 | 
19 | 0.43 µg/mL (≈ 1.15 µM) | CC(C)n1cnc2c(NCc3ccc(Cl)cc3)nc(NC[C@@H](C)O)nc21 | 

Row | IC50 [1] | SMILES | also measured
20 | 0.19 µg/mL (≈ 0.472 µM) | CC(C)[C@H](CO)Nc1nc(NCc2ccc(Cl)cc2)c2ncn(C(C)C)c2n1 | 
21 | 59 µg/mL (≈ 130 µM) | CC(C)Cn1cnc2c(NCc3ccc(C(F)(F)F)cc3)nc(N(CCO)CCO)nc21 | 
22 | 60 µg/mL (≈ 207 µM) | COc1ccc(CNc2nc(Cl)nc3[nH]cnc23)cc1 | 
23 | 1 µg/mL (≈ 3.48 µM) | CC(C)n1cnc2c(Nc3ccccc3)nc(Cl)nc21 | 
24 | > 60 µg/mL | COc1ccc(CNc2nc(Cl)nc3c2ncn3CCCC#N)cc1 | 
25 | 0.6 µg/mL (≈ 1.17 µM) | CC(C)n1cnc2c(NCc3ccc(-c4ccc(C(F)(F)F)cc4)cc3)nc(N(CCO)CCO)nc21 | 
26 | > 60 µg/mL | OCCNc1nc(NCc2ccccc2)nc2[nH]cnc12 | 
27 | 0.56 µg/mL (≈ 1.28 µM) | CC(C)n1cnc2c(NCc3ccc(C(F)(F)F)cc3)nc(N(CCO)CCO)nc21 | 
28 | 0.63 µg/mL (≈ 1.64 µM) | CC(C)n1cnc2c(NCc3ccc(F)cc3)nc(NC[C@@H]3CCCO3)nc21 | 
29 | 1 µg/mL (≈ 2.24 µM) | COc1ccc(CNc2nc(N(CCO)Cc3ccccc3)nc3c2ncn3C(C)C)cc1 | 
30 | 40 µg/mL (≈ 76 µM) | COc1ccc(CNc2nc(N(CCO)CCO)nc3c2ncn3C(F)(C(F)(F)F)C(F)(F)F)cc1 | 
31 | 4 µg/mL (≈ 11.2 µM) | COc1ccc(CNc2nc(NCCO)nc3c2ncn3C(C)C)cc1 | 
32 | 1.07 µg/mL (≈ 2.31 µM) | CC(C)n1cnc2c(NCc3ccc(Cl)cc3)nc(N[C@@H](Cc3ccccc3)C(N)=O)nc21 | 
33 | 0.35 µg/mL (≈ 0.934 µM) | CC(C)n1cnc2c(NCc3ccc(Cl)cc3)nc(N[C@H](C)CO)nc21 | 
34 | 37 µg/mL (≈ 85.5 µM) | CC(=O)C(C)n1cnc2c(NCc3ccc(Cl)cc3)nc(N(CCO)CCO)nc21 (stereo unspecified) | 
35 | 11 µg/mL (≈ 26.4 µM) | CC(=O)C(C)n1cnc2c(NCc3ccc(F)cc3)nc(N(CCO)CCO)nc21 (stereo unspecified) | 
36 | 1 µg/mL (≈ 2.13 µM) | COc1ccc(CNc2nc(N(Cc3cccnc3)CC(C)C#N)nc3c2ncn3C(C)C)cc1 (stereo unspecified) | 
37 | 0.8 µg/mL (≈ 1.87 µM) | COc1ccc(CNc2nc(N(CC(C)O)CC(C)O)nc3c2ncn3C(C)C)cc1 (stereo unspecified) | 
38 | 1 µg/mL (≈ 3.25 µM) | CC(C)n1cnc2c(NCC3CCCCC3)nc(Cl)nc21 | 

Row | IC50 [1] | SMILES | also measured
39 | 0.6 µg/mL (≈ 1.39 µM) | CC(C)n1cnc2c(NCc3ccc(-c4ccccc4)cc3)nc(NCC(O)CO)nc21 (stereo unspecified) | 
40 | > 60 µg/mL | FC(F)(F)n1cnc2c(OCc3ccc(Cl)cc3)nc(Cl)nc21 | 
41 | 1 µg/mL (≈ 2.52 µM) | COc1ccc(CNc2nc(N3CCCC(O)C3)nc3c2ncn3C(C)C)cc1 (stereo unspecified) | 
42 | 1 µg/mL (≈ 2.42 µM) | COc1ccc(CNc2nc(NC(C)(CO)C(C)C)nc3c2ncn3C(C)C)cc1 (stereo unspecified) | 
43 | 1 µg/mL (≈ 2.67 µM) | CC(C)n1cnc2c(NCc3ccc(Cl)cc3)nc(NCCCN)nc21 | 
44 | 0.5 µg/mL (≈ 1.25 µM) | COc1cccc(CNc2nc(N(CCO)CCO)nc3c2ncn3C(C)C)c1 | 
45 | 31 µg/mL (≈ 77.1 µM) | CC(C)n1cnc2c(NCc3ccc(Cl)cc3)nc(NCCCCCN)nc21 | 
46 | 0.43 µg/mL (≈ 0.96 µM) | CC(C)n1cnc2c(NCc3ccc(Cl)cc3)nc(N(CCO)CCNCCO)nc21 | 
47 | 0.48 µg/mL (≈ 1.34 µM) | CC(N)CNc1nc(NCc2ccc(F)cc2)c2ncn(C(C)C)c2n1 (stereo unspecified) | 
48 | 0.1 µg/mL (≈ 0.248 µM) | CSc1cccc(Nc2nc(N(CCO)CCO)nc3c2ncn3C(C)C)c1 | 
49 | > 45 µg/mL | COc1ccc(CNc2nc(Cl)nc3c2ncn3C(F)(C(F)(F)F)C(F)(F)F)cc1 | 
50 | 0.9 µg/mL (≈ 2.71 µM) | COc1cccc(CNc2nc(Cl)nc3c2ncn3C(C)C)c1 | 
51 | 0.6 µg/mL (≈ 1.3 µM) | Cc1ccc(-c2ccc(CNc3nc(N(CCO)CCO)nc4c3ncn4C(C)C)cc2)cc1 | 
52 | 0.58 µg/mL (≈ 1.51 µM) | CC(C)n1cnc2c(NCc3ccc(F)cc3)nc(NC[C@H]3CCCO3)nc21 | 
53 | 0.26 µg/mL (≈ 0.694 µM) | CC(C)n1cnc2c(NCc3ccc(Cl)cc3)nc(N[C@@H](C)CO)nc21 | 
54 | 1.07 µg/mL (≈ 2.38 µM) | CC(C)n1cnc2c(NCc3ccc(Cl)cc3)nc(NC[C@@H](N)Cc3ccccc3)nc21 | 
55 | 9 µg/mL (≈ 22.2 µM) | CC(C)n1cnc2c(NCc3ccc(S(N)(=O)=O)cc3)nc(NCCN)nc21 | 
56 | 0.16 µg/mL (≈ 0.358 µM) | CC(C)n1cnc2c(NCc3ccc(-c4ccccn4)cc3)nc(N(CCO)CCO)nc21 | 

Row | SMILES | IC50 [1] | also measured
57 | COc1ccc(CNc2nc(Cl)nc3c2ncn3Cc2ccccc2)cc1 | > 60 µg/mL | 
58 | COc1ccc(CNc2nc(Cl)nc3c2ncn3C)cc1 | 6 µg/mL (≈ 19.8 µM) | 
59 | CC(C)n1cnc2c(Nc3ccc(-c4ccccc4)cc3)nc(N(CCO)CCO)nc21 | 0.6 µg/mL (≈ 1.39 µM) | IC50 [3]: 1 µg/mL (≈ 2.31 µM); IC50 ([2]; caco-2): 0.5 µg/mL (≈ 1.16 µM); IC50 ([2]; mcf-7): 4 µg/mL (≈ 9.25 µM); IC50 ([2]; ovcar): 7 µg/mL (≈ 16.2 µM); IC50 ([2]; panc1): 4 µg/mL (≈ 9.25 µM)
60 | CC(C)n1cnc2c(NCc3ccc(F)cc3)nc(N(CCO)CCO)nc21 | 0.15 µg/mL (≈ 0.386 µM) | 
61 | COc1ccc(CNc2nc(Cl)nc3c2ncn3C(C)C)cc1 | 4 µg/mL (≈ 12.1 µM) | 
62 | CC(C)n1cnc2c(NCc3ccc(Cl)cc3)nc(N(CCN)CCO)nc21 | 0.07 µg/mL (≈ 0.173 µM) | IC50 ([2]; mrc 5): 1 µg/mL (≈ 2.48 µM)
63 | CC(C)[C@@H](CO)Nc1nc(NCc2ccc(F)cc2)c2ncn(C(C)C)c2n1 | 0.19 µg/mL (≈ 0.492 µM) | 
64 | CC(C)n1cnc2c(NCc3ccc(F)cc3)nc(NC[C@@H](C)O)nc21 | 0.23 µg/mL (≈ 0.642 µM) | 
65 | CC(C)n1cnc2c(NCc3ccc(Cl)cc3)nc(NCCN)nc21 | 0.35 µg/mL (≈ 0.973 µM) | IC50 ([2]; mrc 5): 1 µg/mL (≈ 2.78 µM)
66 | COc1ccc(CNc2nc(Cl)nc3c2ncn3CC(C)C)cc1 | 60 µg/mL (≈ 173 µM) | 
67 | CC(C)n1cnc2c(NCc3ccc(Cl)cc3)nc(NCC(O)c3ccccc3)nc21 (stereo unspecified) | 0.08 µg/mL (≈ 0.183 µM) | 
68 | COc1ccc(CNc2nc(NCCO)nc3c2ncn3C)cc1 | 4 µg/mL (≈ 12.2 µM) | 
69 | COc1ccc(CNc2nc(N(CCO)CCO)nc3c2ncn3CCO)cc1 | 0.5 µg/mL (≈ 1.24 µM) | 
70 | CC(C)[C@H](CO)Nc1nc(NCc2ccc(F)cc2)c2ncn(C(C)C)c2n1 | 0.06 µg/mL (≈ 0.155 µM) | 
71 | COc1ccc(CNc2nc(N3CC=CC3)nc3c2ncn3C(C)C)cc1 | 1 µg/mL (≈ 2.74 µM) | 
72 | CC(C)n1cnc2c(NCc3ccc(Cl)cc3)nc(N(CCO)CCO)nc21 | 0.12 µg/mL (≈ 0.296 µM) | IC50 ([2]; mrc 5): 3 µg/mL (≈ 7.41 µM)
73 | COc1ccc(CNc2nc(N(CCO)CCO)nc3c2ncn3C)cc1 | 4 µg/mL (≈ 10.7 µM) | 
74 | COc1ccc(CNc2nc(NCC(O)CN)nc3c2ncn3C(C)C)cc1 (stereo unspecified) | 0.6 µg/mL (≈ 1.56 µM) | 
75 | CC(C)n1cnc2c(NCc3ccc(F)cc3)nc(NC[C@H](C)O)nc21 | 0.22 µg/mL (≈ 0.614 µM) | 
76 | Cn1cnc2c(NCCO)nc(NCCO)nc21 | > 60 µg/mL | 
77 | COc1ccc(CNc2nc(Cl)nc3c2ncn3C(F)(F)F)cc1 | > 60 µg/mL | 
78 | CC(N)CNc1nc(NCc2ccc(Cl)cc2)c2ncn(C(C)C)c2n1 (stereo unspecified) | 0.05 µg/mL (≈ 0.134 µM) | IC50 ([2]; mrc 5): 1 µg/mL (≈ 2.67 µM)

Reference: the Kinase Knowledgebase extract (Sharma et al. 2016)
